According to patent US20110028444A1, “PHARMACEUTICALLY ACCEPTABLE SALTS OF ANTI-INFECTION QUINOLONE COMPOUNDS” (priority 2008, published 2011):
Values after ≈ are worked out from the molar mass of the structure shown. Where two headings read alike, the source gives them in different places.

What was measured:
[1] = test system: Enterobacter cloacae; assay: In-vitro antibacterial test, agar dilution MIC; type: cell-based; details: agar dilution, read-out: In-vitro MIC
Description: (§4) The test bacterial strains were the standard quality control test strains of Klebsiella pneumoniae strains (Strains No. CMCC 46114-8), Pseudomonas aeruginosa (Strains No. ATCC 27853), Escherichia coli (Strains No. ATCC25922), and Staphylococcus aureus cocci (Strains No. ATCC25925). Other bacteria included those isolated from sputum, throat swab or urine of patients with acute bacterial respiratory tract infection or urinary tract infection and identified by the hospitals.
(§5) HCl levofloxacin injection and NaCl ciprofloxacin lactate injection were diluted with sterilized distilled water to a concentration of 1920 μg/mL.

[2] = test system: Vibrio cholerae; assay: In-vitro antibacterial test, agar dilution MIC; type: cell-based; details: Vibrio cholerae, read-out: In-vitro MIC
Description: as §4, §5

[3] = test system: Staphylococcus aureus; assay: In-vitro antibacterial test, agar dilution MIC; type: cell-based; details: Staphylococcus aureus, read-out: In-vitro MIC
Description: as §4, §5

[4] = test system: Klebsiella pneumoniae; assay: In-vitro antibacterial test, agar dilution MIC; type: cell-based; details: Klebsiella pneumoniae
Description: as §4, §5

[5] = Solubility test: maximum solubility in water; type: physicochemical; details: 25 °C, water, thermodynamic from solid
Method: Three lots of mesylates and three lots of lactates, respectively, were subjected to preliminary tests for maximum solubility in water. At ambient temperature (25° C.), 0.2 g of sample was dissolved in 1 mL of water. To the solution was added 0.1 g of the sample each time until the sample could no longer be dissolved. The amount of sample dissolved was the maximum solubility.

[6] = test system: New Zealand rabbit ear vein and surrounding tissues; assay: Vascular irritation tests; type: in vivo, New Zealand rabbits; details: vein injection once a day for 3 days, high and low doses
Description: Sixteen New Zealand rabbits were divided into 4 groups: a control group and three treatment groups for compounds 4, 5, and 6, respectively; each group had 4 rabbits. The rabbits of the treatment groups were vein-injected on their left ears with high doses of the test samples and on their right ears with low doses of the test samples. The rabbits of the control group were rein-injected on their both left and right ears with sodium chloride solution. The injections continued for 3 days, once a day. Two rabbits from each group were anatomized after 24 hours of each injection.

[7] = test system: SD rats
Method: The dose without toxic reaction was thereby determined and the long term toxicity to SD rats was tested. One hundred forty SD rats were randomly divided into 7 groups depending on their body weight and sex; each group had 20 rats with 10 males and 10 females. […] The rats were administrated by intravenous injection, once a day for consecutive 4 weeks. The recovery was monitored for 2 weeks after treatment.
Drug preparation: the drugs were dissolved with a saline solution to the desired concentration before administration. Administration: intravenous injection. Delivery period: 28 days continuously. Observation and inspection: Observation and inspection projects, targets and time: including the general state of observation (7), hematologic (16), biochemical blood test (18), urine (10) and pathological examination.
General observation: the appearance of signs, behavior, glands, respiratory and stool, daily observation and timely recording, discovering dead or dying animals, timely anatomical examination, food intake, and body weight once weekly.
Blood tests: abdominal aortic blood for hematology testing, in the 16 testing indicators, leukocyte classification using whole blood smear, Wright stain staining; prothrombin time (PT) with a 0.109 mmol/L of citrate Citrus medica sodium (with blood volume ratio of 1:9) anticoagulant, 3000 r/min centrifugal 10 min, taking with BE Thromotimer plasma coagulation analyzer (Germany) determination; other indicators to EDTA anticoagulant, using SWELAB AC920EO automated hematology analyzer (Sweden).
Biochemical blood tests: blood sampling method same as above, blood serum obtained by 3000 r/min centrifugal 10 min. In the 21 indicators, the Na+, K+, Cl^− were determined using EasyLyte Plus Na/K/Cl analyzer (USA), the other indexes of blood were determined using a Hitachi 7020 automatic biochemical analyzer (Japan) determination.
Urine tests: 16 h urine collection, using [sequence] 100 urine analyzer.
Pathology: after anesthesia, the animal was killed by blood letting of the abdominal aorta. System anatomy and visual observation of changes in various organs were performed; and organ weights were determined. Tissue was fixed in 10% neutral formalin; plates were made by conventional paraffin producers, HE staining, and light microscopy.
Statistical analysis: In the different groups, the body weight, hematology, blood chemistry, urine measurements, organ weights, organ coefficient were calculated for the mean±standard deviation and t-test comparison between groups. Pathological abnormalities according to their incidence and severity were compared between groups.

[8] = test system: Pseudomonas aeruginosa; assay: In-vitro antibacterial test, agar dilution MIC; type: cell-based; details: Pseudomonas aeruginosa, read-out: In-vitro MIC
Description: as §4, §5

[9] = test system: Streptococcus pneumoniae; assay: In-vitro antibacterial test, agar dilution MIC; type: cell-based; details: Streptococcus pneumoniae; agar dilution; read-out: In-vitro MIC
Method: (§1) Test method: the agar dilution method was used for the minimum inhibitory concentration (MIC) determination. The antibacterial chemicals were mixed with given amounts of agar in various concentrations and the mixtures were made into solid plates. Each plate had the antibacterial concentration two times higher than the next plate. Bacteria species were then added to the surface of the plates, cultured, and observed for their growth.
(§2) Other bacteria included those isolated from sputum, throat swab or urine of patients with acute bacterial respiratory tract infection or urinary tract infection and identified by the hospitals.
(§3) (S)-6-fluoro-1-methyl-4-oxo-7-(1-piperazinyl)-1H,4H-[1,3]thiazeto[3,2-a]quino line-3-carboxylic acid lactate and other test samples, equivalent to 96 mg of ulifloxacin, were dissolved in sterilized distilled water to make up 50 mL of each solution.

[10] = test system: Enterococcus faecalis; assay: In-vitro antibacterial test, agar dilution MIC; type: cell-based; details: read-out: In-vitro MIC
Description: as §4, §5

[11] = test system: Klebsiella pneumoniae, Pseudomonas aeruginosa, Staphylococcus aureus, Escherichia coli, Enterococcus faecalis, Streptococcus pneumoniae, Enterobacter cloacae …; assay: In-vitro antibacterial tests, summary over the tested bacteria; type: cell-based
Method: as §1, §2, §3

[12] = test system: Escherichia coli; assay: In-vitro antibacterial test, agar dilution MIC; type: cell-based; details: Escherichia coli; agar dilution; read-out: In-vitro MIC
Description: as §4, §5

[13] = test system: rats; details: rat, in vivo; cited from earlier work
[14] = test system: mice; details: mouse, in vivo; cited from earlier work
[15] = test system: Sprague-Drwlog rats; details: intravenous injection, four weeks; cited from earlier work
[16] = high dose group (60 mg/kg·bw), after 28 days, tissue microscopy

Work on `CS(=O)(=O)O.C[C@@H]1Sc2c(C(=O)O)c(=O)c3cc(F)c(N4CCNCC4)cc3n21` [Compound 5, (S)-6-fluoro-1-methyl-4-oxo-7-(1-piperazinyl)-1H,4H-[1,3]thiazeto[3,2-a]quinoline-3-carboxylic acid mesylate] yielded an MIC [1] of 0.5 µg/mL, an MIC [2] of 0.02 µg/mL and an MIC [3] of 0.25 µg/mL. For the same compound, the MIC [4] was 0.02 µg/mL, the solubility [5] was 490 mg/mL and the “irritation to ear vein and surrounding tissues” value [6] was “no irritation”. The “NOAEL (no observed adverse effect level)” value ([7]; SD rats, 28 days continuous intravenous administration, calculated based on NM394) was 30 mg/kg·bw, the “targeted organ of toxicity” value ([7]; SD rats, intravenous) was “the kidney” and the “rats with crystals in renal tubules” value [7, 16] was “two”. The “rats with kidney protein casts” value [7, 16] was “one”, the “rats with mild cortical tubular dilatation” value [7, 16] was “two” and the MIC [8] was 0.25 µg/mL. For the same compound, the MIC [9] was 0.01 µg/mL, the MIC [10] was 0.2 µg/mL and the “antibacterial activities compared with compounds 7 and 8” value ([11]; against the above four bacteria, concentrations calculated as equivalents to NM394) was “slightly stronger”. The “antibacterial activity (in words)” value ([11]; against the eight tested bacteria) was “relatively strong antibacterial activity”.

`CC1Sc2c(C(=O)O)c(=O)c3cc(F)c(N4CCNCC4)cc3n21` (racemic) [Ulifloxacin, 6-fluoro-1-methyl-4-oxo-7-(1-piperazinyl)-1H,4H-[1,3]thiazeto[3,2-a]quinoline-3-carboxylic acid, reference compound] gave an MIC [1] of 1 µg/mL (≈ 2.86 µM), an MIC ([3]; agar dilution) of 0.5 µg/mL (≈ 1.43 µM) and an MIC [12] of 0.08 µg/mL (≈ 0.229 µM). The “toxic effects of intravenous injection” value [13] was “convulsions, difficult breathing, injection site redness, swelling, and necrosis”, the “toxic effects of intravenous injection” value [14] was “losing weight, testicular atrophy, and visible pulmonary congestion” and the “NOAEL (no observed adverse effect level) dose” value [15] was 3 mg/kg. It also gave an MIC ([8]; agar dilution) of 0.5 µg/mL (≈ 1.43 µM) and an MIC [9] of 0.031 µg/mL (≈ 0.0887 µM).
